The source of these data is BindingDB's records for doi:10.1016/j.bmcl.2014.02.013 (Bristol-Myers Squibb, 2014).

The IC50 is the midpoint of a concentration-inhibition curve.

Each structure is given as a SMILES string.

The nature of this experiment: Antagonist activity at CCR2 in human monocytes assessed as reduction of chemotaxis in presence of […] BSA.
For `CC(C)N(C)[C@@H]1CC[C@H](N2CC[C@H](NC(=O)c3cccc(C(F)(F)F)c3)C2=O)[C@H](CS(=O)(=O)C(C)(C)C)C1`, the IC50 stood at 0.2 nM.

Turning to `CC(C)N(C)[C@@H]1CC[C@H](N2CC[C@H](NC(=O)c3cccc(C(F)(F)F)c3)C2=O)[C@H](CS(C)(=O)=O)C1`, the IC50 amounted to 2.6 nM.

Turning to `CCS(=O)(=O)C[C@@H]1C[C@H](N(C)C(C)C)CC[C@@H]1N1CC[C@H](NC(=O)c2cccc(C(F)(F)F)c2)C1=O`, the concentration for half-maximal inhibition (IC50) came to 0.6 nM.

With `CC(C)N(C)[C@@H]1CC[C@H](N2CC[C@H](NC(=O)c3cccc(C(F)(F)F)c3)C2=O)[C@H](CS(=O)(=O)C(C)C)C1`, the IC50 worked out at 0.2 nM.
